Structures can show the parent of a compound that is named as a salt. Where two headings read alike, the source gives them in different places.
Columns and labels:
[1] = In vivo distribution of doxorubicin in Californian rabbit liver; details: intravenous, 5 mg/kg
[2] = female, Wistar, rat, in vivo, 5 mg/kg, 2 h
[3] = Californian, rabbit, in vivo, 5 mg/kg, 0.5 h
[4] = In vivo distribution of doxorubicin in the liver of Wistar rats; details: female, rat, intravenous, 5 mg/kg
[5] = rabbit ear vein; 1.25 mg doxorubicin/kg vs 5.0 mg doxorubicin/kg doxorubicin hydrochloride
Procedure: FIG. 9 are graphs illustrating doxorubicin concentration in the liver and the heart upon intravenous injection of 5 mg/kg aqueous doxorubicin hydrochloride and of 1.25 mg/kg of the composition of the invention according to Example 1.
The doxorubicin composition of the invention according to Example 1 (R═C16 sulfonate) was administered to Californian rabbits by injection into the ear vein at a concentration of 1.25 mg doxorubicin/kg body weight. For comparison aqueous doxorubicin hydrochloride was administered in the same manner at a concentration of 5.0 mg doxorubicin/kg body weight.

[6] = Solubility in aqueous ethanol (UV method); assay type: physicochemical
Procedure: Solubility in aqueous ethanol was determined by centrifuging an adequate amount of freshly obtained colloid at 3000 rpm for 30-90 min, decanting the supernatant, adding 10 mL water and shaking the mixture, then repeating centrifugation, shaking and washing 3 times. The centrifugate from the final centrifugation was air dried for 72 h at room temperature followed by drying in vacuo for 24 h. A portion of the dried centrifugate (20 mg) was resuspended in 6 mL aqueous ethanol by stirring at room temperature for 24 h. The mixture was centrifuged at 3000 rpm for 10 min and the supernatant filtered through a 0.2 micrometer filter to remove aggregates of undissolved solid product. The solubility of the compound was determined by a UV method.

| Compound | concentration at 0.5 h [1] | Increase of doxorubicin concentration in liver tissue [2] | Increase of doxorubicin concentration in liver tissue [3] | concentration at 2 h [4] | Delivery of doxorubicin to the heart versus aqueous doxorubicin hydrochloride [5] | Efficiency of delivery of doxorubicin to the liver versus aqueous doxorubicin hydrochloride [5] | Solubility ([6]; colloid doxorubicin alkyl sulfates and alkane sulfonates in 30% ethanol (v/v)) | Solubility in 30% ethanol ([6]; doxorubicin salts, 30% ethanol (Table 5)) |
| --- | --- | --- | --- | --- | --- | --- | --- | --- |
| COc1cccc2c1C(=O)c1c(O)c3c(c(O)c1C2=O)C[C@@](O)(C(=O)CO)C[C@@H]3O[C@H]1C[C@H](N)[C@H](O)[C@H](C)O1 [Cl^−, doxorubicin hydrochloride] | 0.392 ± 0.128 ng/g | (1) times | (1) times | 11.5 ± 2.98 ng/g | – | – | – | – |
| CCCCCCCCCCCCCCCCS(=O)(=O)O.COc1cccc2c1C(=O)c1c(O)c3c(c(O)c1C2=O)C[C@@](O)(C(=O)CO)C[C@@H]3O[C@H]1C[C@H](N)[C@H](O)[C@H](C)O1 [doxorubicin alkane sulfonate n=16] | – | – | – | – | no difference | about four | 11.94 µg/mL | 11.94 µg/mL |

From patent publication US10973772B2, “Targeted delivery of hydrophilic drugs” (Double Bond Pharmaceuticals AB, priority 2014, dated 2021)
